Like-named read-outs stand apart in the source and are kept apart here.
How the values were obtained:
P. falciparum 3D7 = test: Asexual blood-stage growth inhibition assay, SYBR green method; type: cell-based; details: ring-stage 3D7 parasites
Procedure: Asexual blood-stage EC50 assays. […] Compound stocks prepared in DMSO were plated using a Tecan D300e automated low volume liquid handler. Ring-stage 3D7 or Dd2 parasites (60 µL cells) (2% hematocrit, 0.5% parasitemia, final DMSO concentration 0.5%) were added to plates, incubated with compounds over a range of concentrations in technical triplicate for 72 h at 37 °C, 5% CO2, and then frozen (-80°C) overnight before analysis. […] Data were analyzed by non-linear regression using GraphPad Prism to determine the EC50 by fitting to the built-in equation (log(inhibitor) vs response-variable slope with four parameters).

Human DHODH = biological target: T1, Human DHODH (Homo sapiens, UniProt Q02127); test: DHODH inhibition, steady-state DCIP assay (human DHODH); type: biochemical; details: recombinant HsDHODH, DCIP method, 25°C, 5 nM enzyme; top concentration 100 µM or 30 µM
T1 construct: C-terminal His6-tagged HsDHODH residues 29-395 in pET-22b (start ^29MATGDE); His6 (C); made in house; host or cells: E. coli BL21-DE3 (phage-resistant)
T1 sequence (Q02127 29-395): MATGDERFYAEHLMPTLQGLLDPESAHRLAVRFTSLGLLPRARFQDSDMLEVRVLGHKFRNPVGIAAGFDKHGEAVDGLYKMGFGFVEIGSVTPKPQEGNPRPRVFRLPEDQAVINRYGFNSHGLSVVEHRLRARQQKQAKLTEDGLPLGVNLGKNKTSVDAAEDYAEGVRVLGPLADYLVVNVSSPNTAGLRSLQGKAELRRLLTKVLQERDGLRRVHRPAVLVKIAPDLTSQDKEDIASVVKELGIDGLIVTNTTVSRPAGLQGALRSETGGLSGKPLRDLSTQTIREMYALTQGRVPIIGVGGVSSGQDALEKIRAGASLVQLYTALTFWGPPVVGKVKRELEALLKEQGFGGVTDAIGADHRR
Excerpt: (§1) DOI: 10.1074/jbc.M206854200).
(§2) Proteins were expressed and purified on a Pharmacia FPLC using HisTrap HP column chromatography followed by gel filtration chromatography on a Pharmacia HiLoad 16/600 Superdex 200 column, and protein concentration determined based on OD280 using the previously described extinction coefficients (Kokkonda et al., 2020, J Med Chem, 63 (9), 4929-4956. DOI: 10.1021/acs.jmedchem.0c00311). Purified proteins were >95% pure based on SDS-PAGE analysis.
(§3) DHODH activity was monitored in a steady-state assay using the 2,6-dichloroindophenol (DCIP) method at 25°C in assay buffer (100 mM HEPES, pH 8.0, 150 mM NaCl, 1% glycerol, 0.1% Triton X-100 reduced) plus substrates 20 µM CoQD, 200 µM DHO, 120 µM DCIP, and 5 nM enzyme as previously described (Malmquist et al, 2008, Biochemistry, 47 (8), 2466-2475. DOI: 10.1021/bi702218c).
(§4) Compound stocks were prepared at 10-100 mM in DMSO, and diluted working stocks in DMSO were generated as appropriate. Compounds were plated from DMSO stocks in 96 well plate format using a Tecan D300e digital dispenser to generate a 3-fold dilution series over a concentration range of 0.0003 -100 µM (or 30 µM), yielding a final DMSO concentration of 1% in the assay. The top concentration used in the dose response was determined by the initial DMSO stock concentrations:100 µM for 100 mM stocks, and 30 µM for 10 mM stocks. Triplicate rate data were collected at each inhibitor concentration. Inhibitory IC50 values were determined by fitting the data to log (inhibitor) vs response equation Y = bottom + (top - bottom)/(1 + 10A ((X - Log IC50))) in GraphPad Prism. DSM265 ^2 was plated as an assay control in all studies.

P. vivax DHODH = P. vivax DHODH (Plasmodium vivax, UniProt A5K1N1); test: DHODH inhibition, steady-state DCIP assay (PvDHODH); type: biochemical
Chain of P. vivax DHODH (A5K1N1 entry or part of it): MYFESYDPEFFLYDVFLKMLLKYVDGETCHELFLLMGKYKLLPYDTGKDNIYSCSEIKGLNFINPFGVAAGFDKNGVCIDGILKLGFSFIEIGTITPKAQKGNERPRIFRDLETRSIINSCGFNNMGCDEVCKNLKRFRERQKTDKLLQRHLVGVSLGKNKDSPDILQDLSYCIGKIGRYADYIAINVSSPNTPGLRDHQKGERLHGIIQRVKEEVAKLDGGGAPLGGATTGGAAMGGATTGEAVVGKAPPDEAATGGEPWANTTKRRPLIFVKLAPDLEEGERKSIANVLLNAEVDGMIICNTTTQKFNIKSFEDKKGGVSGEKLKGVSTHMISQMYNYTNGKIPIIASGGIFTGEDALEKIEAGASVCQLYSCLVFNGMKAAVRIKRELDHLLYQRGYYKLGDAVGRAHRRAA
Excerpt: as §1, §2, §3, §4

P. falciparum DHODH = biological target: T2, P. falciparum DHODH (Plasmodium falciparum, UniProt Q08210); test: DHODH inhibition, steady-state DCIP assay (PfDHODH); type: biochemical; details: recombinant PfDHODH, DCIP method, 25°C, 5 nM enzyme
T2 construct: His6 (N); made in house; host or cells: E. coli BL21-DE3 (phage-resistant)
T2 sequence (Q08210 158-569): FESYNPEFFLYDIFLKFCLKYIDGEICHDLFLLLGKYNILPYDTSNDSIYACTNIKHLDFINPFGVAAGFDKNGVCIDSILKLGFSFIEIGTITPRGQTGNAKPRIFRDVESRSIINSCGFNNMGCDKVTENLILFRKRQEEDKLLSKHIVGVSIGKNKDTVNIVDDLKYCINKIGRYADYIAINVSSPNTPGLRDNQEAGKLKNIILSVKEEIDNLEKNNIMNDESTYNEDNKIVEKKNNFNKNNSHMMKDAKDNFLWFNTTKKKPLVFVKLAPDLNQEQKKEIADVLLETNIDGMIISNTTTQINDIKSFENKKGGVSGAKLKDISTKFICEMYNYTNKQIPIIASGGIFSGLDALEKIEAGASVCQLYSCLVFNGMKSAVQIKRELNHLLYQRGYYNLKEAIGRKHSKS
Procedure: as §4, with “Prism.” for “Prism. DSM265 ^2 was plated as an assay control in all studies.”

[1] = Plasmodium falciparum, 3D7, 72 h
[2] = recombinant PvDHODH, DCIP method, 25°C, 5 nM enzyme; read-out: P. vivax DHODH (IC50)
[3] = read-out: P. vivax DHODH (IC50); recombinant PvDHODH, DCIP method, 25°C, 5 nM enzyme

| Structure (SMILES) | EC50 (P. falciparum 3D7; [1]) | IC50 (Human DHODH) | IC50 (P. vivax DHODH; [2]) | IC50 (P. falciparum DHODH) | EC50 (P. falciparum 3D7; 72 h) | IC50 (P. vivax DHODH; [3]) |
| --- | --- | --- | --- | --- | --- | --- |
| CC(C)[C@@](O)(c1cnc(C(F)(F)F)c(Cl)c1)c1c2ccn(C3CC3)c(=O)c2nn1C (single isomer, unassigned) [1-1] | 16 nM | > 30000 nM | 40 nM | 46 nM | – | – |
| Cn1nc2c(=O)n(C3CC3)ccc2c1[C@](O)(c1ccc(C(F)(F)F)c(C#N)c1)C1CC1 (single isomer, unassigned) [1-3] | 1.3 nM | > 30000 nM | 17 nM | 17 nM | – | – |
| CC[C@@](O)(c1ccc(C(F)(F)F)c(C#N)c1)c1c2ccn(C3CC3)c(=O)c2nn1C (single isomer, unassigned) [1-5] | 0.75 nM | 910 nM | 21 nM | 17 nM | – | – |
| Cn1nc2c(=O)n(C3CC3)ccc2c1[C@](C)(O)c1ccc(F)c(Cl)c1 (single isomer, unassigned) [1-9] | 0.92 nM | 14000 nM | 6.9 nM | 16 nM | – | – |
| CC[C@@](O)(c1cc(F)c(Cl)c(F)c1)c1c2ccn(C3CC3)c(=O)c2nn1C (single isomer, unassigned) [1-20] | 0.5 nM | 1400 nM | 19 nM | – | – | – |
| CC[C@@](O)(c1ccc(C(F)(F)F)nc1)c1c2ccn(C3CC3)c(=O)c2nn1C (single isomer, unassigned) [1-22] | 2.7 nM | 5300 nM | 48 nM | – | – | – |
| CCn1ccc2c([C@](O)(c3cnc(C(F)(F)F)c(Cl)c3)C3CC3)n(C)nc2c1=O (single isomer, unassigned) [1-32] | 2.4 nM | > 100000 nM | 8 nM | – | – | – |
| CCn1ccc2c([C@](O)(c3ccc(C(F)(F)F)nc3)C3CC3)n(C)nc2c1=O (single isomer, unassigned) [1-44] | 7.2 nM | > 100000 nM | 29 nM | – | – | – |
| Cn1nc2c(=O)n(C3CC3)ncc2c1[C@](O)(c1cnc(C(F)(F)F)c(Cl)c1)C1CC1 (single isomer, unassigned) [2-10] | 15 nM | > 30000 nM | 21 nM | – | – | – |
| CC[C@@](O)(c1cnc(C(F)(F)F)c(Cl)c1)c1c2cnn(C3CC3)c(=O)c2nn1C (single isomer, unassigned) [2-14] | 2.7 nM | > 30000 nM | – | – | – | – |
| CC[C@@](O)(c1cnc(C(F)(F)F)c(Cl)c1)c1c2ncn(C3CC3)c(=O)c2nn1C (single isomer, unassigned) [3-5] | 0.94 nM | 6800 nM | 17 nM | – | – | – |
| Cn1nc2c(=O)n(C3CC3)ccc2c1[C@](N)(c1cnc(C(F)(F)F)c(Cl)c1)C1CC1 (single isomer, unassigned) [4-9] | 14 nM | 21000 nM | – | 44 nM | – | – |
| CC[C@@](N)(c1ccc(C(F)(F)F)c(Cl)c1)c1c2cnn(C3CC3)c(=O)c2nn1C (single isomer, unassigned) [4-18] | 3.4 nM | 4700 nM | 6.2 nM | – | – | – |
| Cn1nc2c(=O)n(C3CC3)ncc2c1[C@](O)(c1cnc(C(F)(F)F)c(Cl)c1)C(F)(F)F (single isomer, unassigned) [5-1] | 3.8 nM | > 30000 nM | 20 nM | – | – | – |
| Cn1nc2c(=O)n(C3CC3)ccc2c1[C@](O)(c1cnc(C(F)(F)F)c(Cl)c1)C(F)(F)F (single isomer, unassigned) [5-5] | 0.51 nM | > 30000 nM | – | – | – | – |
| Cn1nc2c(=O)n(C3CC3)ccc2c1[C@](O)(c1ccc(C(F)(F)F)nc1)C(F)(F)F (single isomer, unassigned) [5-11] | 1.9 nM | > 30000 nM | 25 nM | – | – | – |
| Cn1nc2c(=O)n(C3CC3)cnc2c1[C@](O)(c1ccc(C(F)(F)F)c(C#N)c1)C(F)(F)F (single isomer, unassigned) [5-56] | – | – | – | 18 nM | 0.14 nM | – |
| Cn1nc2c(=O)n(C3CC3)ccc2c1[C@](O)(c1ccc(C(F)(F)F)c(Cl)c1)C(F)(F)F (stereo in doubt) [5-7] | 0.17 nM | 4700 nM | – | – | – | 9.1 nM |
| Cn1nc2c(=O)n(C3CC3)ccc2c1[C@](C)(O)c1cnc(C(F)(F)F)c(Cl)c1 [1-10] | 1.4 nM | – | – | 25 nM | – | 9.7 nM |

Source: patent EP4680608B1, “2,6-DIHYDRO-7H-PYRAZOLO[3,4-C]PYRIDIN-7-ONE DERIVATIVES AS ANTI-MALARIAL AGENTS” (MMV Medicines for Malaria Venture, priority 2024, dated 2025)
